Test results published in the OPERA property sets (Mansouri et al. 2018).

For `Cc1cc(OC(=O)N(C)C)nn1C(=O)N(C)C`, the log10 vapour pressure (mmHg) was -4.01 and the melting point was 69.5 °C. For `CC(=O)Oc1ccccc1`, the boiling point was 196 °C, the log10 vapour pressure (mmHg) was -0.4 and the melting point was -30 °C. In the case of `CC(C)[C@]12CC(=O)[C@H](C)[C@H]1C2`, the boiling point is reported as 203 °C and the log10 vapour pressure (mmHg) is reported as -0.385. With `O=Cc1cc(O)ccc1[N+](=O)[O-]` the melting point was 167 °C. Work on `c1ccc2c(c1)C1c3ccccc3C2c2ccccc21` yielded a melting point of 254 °C. In the case of `CC(C)[C@@H](Br)C(=O)O`, the boiling point is reported as 230 °C and the melting point is reported as 44 °C. `CC(=O)C(C)O` (stereo unspecified) gave a boiling point of 143 °C and a melting point of 15 °C. `NC(=O)c1ccc(N)cc1` gave a melting point of 182 °C. Molecule `C=Cc1ccccc1C` has a boiling point of 170 °C, a log10 vapour pressure (mmHg) of 0.268 and a melting point of -68.5 °C. Molecule `CCCCCO` has a boiling point of 138 °C, a log10 Henry constant (atm·m³/mol) of -4.89 and a log10 Koa of 4.69. The log10 Koc (L/kg) was 0.7, the log10 vapour pressure (mmHg) was 0.342 and the melting point was -78.9 °C. For the same molecule, the ready biodegradability was “readily biodegradable”. In the case of `Cc1cccc(N)n1`, the boiling point is reported as 208 °C and the melting point is reported as 41 °C. Work on `CC(=O)CC(=O)C(=O)O` yielded a melting point of 99.5 °C. Molecule `FC(F)(F)C(Cl)CCl` (stereo unspecified) has a boiling point of 76.9 °C. For `Brc1ccc2c(c1)Cc1ccccc1-2`, the melting point was 114 °C. For `CC(=O)c1cccc(Br)c1`, the melting point was 7.5 °C. Molecule `C[C@]12CC[C@H]3C(=CCc4cc(O)ccc43)[C@@H]1CCC2=O` has a melting point of 239 °C. With `CN(C)C1CSSC1` the melting point was 177 °C. `Clc1ccc2c(Cl)ccc(Cl)c2c1Cl` gave a log10 Koa of 8.4. `CN(C)c1ccc(N=Nc2ccc([N+](=O)[O-])cc2)cc1` showed a log10 vapour pressure (mmHg) of -10 and a melting point of 236 °C. In the case of `O=[N+]([O-])c1cc(C2CCCCC2)c(O)c([N+](=O)[O-])c1`, the melting point is reported as 107 °C. `O=C(O)C(Cl)CCl` (stereo unspecified) showed a boiling point of 210 °C and a melting point of 50 °C. Work on `CCOC1Oc2ccc(OS(C)(=O)=O)cc2C1(C)C` (stereo unspecified) yielded a log10 Koc (L/kg) of 2.53, a log10 vapour pressure (mmHg) of -5.31 and a melting point of 71 °C. Molecule `CCOC(=O)N1C(=O)c2ccccc2C1=O` has a melting point of 91 °C. Molecule `CC(Cl)C(Cl)(Cl)Cl` (stereo unspecified) has a boiling point of 152 °C and a melting point of -64 °C. With `O=C(O)c1ccncc1C(=O)O` the melting point was 256 °C. With `Cc1cc2nc3c(=O)[nH]c(=O)nc-3n(C[C@H](O)[C@H](O)[C@H](O)CO)c2cc1C` the ready biodegradability was “not readily biodegradable”. `O=C(O)c1cc(Cl)cc(Cl)c1` gave a melting point of 188 °C. Work on `CN(C)c1ccncc1` yielded a melting point of 112 °C. Work on `Cc1cnc2ccccc2c1C` yielded a boiling point of 291 °C and a melting point of 73.5 °C. For `Cl.Cl.Cl.Cl.Nc1ccc(-c2ccc(N)c(N)c2)cc1N`, the melting point was 179 °C. In the case of `C[C@H]1[C@H](C)CC[C@]2(C)CC[C@]3(C)C(=CC[C@@H]4[C@@]5(C)CC[C@H](O)C(C)(C)[C@@H]5CC[C@]43C)[C@H]12`, the melting point is reported as 186 °C. In the case of `CC(=O)O[C@]1(C(C)=O)CC[C@H]2[C@@H]3CCC4=CC(=O)CC[C@]4(C)[C@@]3(F)[C@@H](O)C[C@@]21C`, the melting point is reported as 268 °C. In the case of `CNC(=O)Oc1cccc(N=CN(C)C)c1.Cl`, the log10 vapour pressure (mmHg) is reported as -7.92. `CC(C)[C@@H]1CCCCC1=O` gave a melting point of 72.5 °C. `CC1(C)CCCCC1` showed a boiling point of 120 °C, a log10 vapour pressure (mmHg) of 1.36 and a melting point of -33.3 °C. The ready biodegradability was “not readily biodegradable”. With `CC(=O)Nc1ccc([N+](=O)[O-])cc1` the melting point was 216 °C. In the case of `NS(=O)(=O)c1cc2c(cc1Cl)N=C(CSCc1ccccc1)NS2(=O)=O`, the melting point is reported as 232 °C. With `O=C(O)c1cc(Cl)ccc1Cl` the boiling point was 301 °C, the melting point was 154 °C and the ready biodegradability was “not readily biodegradable”. `CCCCCCOc1ccc(N)cc1` gave a melting point of 44 °C. In the case of `C=COC=O`, the log10 vapour pressure (mmHg) is reported as 2.5. `OCCCCCCCCCCCCO` showed a melting point of 81.3 °C. Work on `OCC(F)(F)C(F)(F)C(F)(F)CO` yielded a melting point of 79.5 °C. `Cc1cc(N)ccc1O` showed a melting point of 176 °C. For `CC1OCCO1`, the boiling point was 81.5 °C. For `ClC1c2ccccc2CCc2ccccc21`, the melting point was 106 °C. Work on `Oc1ncnc2[nH]ncc12` yielded a melting point of 350 °C. In the case of `O=C(CI)c1ccccc1`, the melting point is reported as 34.4 °C. Molecule `ClC(Cl)c1ccccc1` has a boiling point of 205 °C, a log10 vapour pressure (mmHg) of -0.328 and a melting point of -17 °C. The ready biodegradability was “readily biodegradable”. For `c1ccc2c(c1)Cc1ccccc1N2`, the boiling point was 347 °C. `N#CCCCCCC#N` showed a melting point of -31.4 °C. For `COC1[C@@H](O[C@@H]2O[C@H](C)[C@@H](O[C@H]3C[C@@](C)(O)[C@H](OC(=O)CC(C)C)[C@H](C)O3)[C@H](N(C)C)[C@H]2O)[C@@H](CC=O)C[C@@H](C)[C@@H](O)C=CC=CC[C@@H](C)OC(=O)C[C@H]1OC(C)=O` (stereo partly specified), the melting point was 132 °C. For `CC/C(=C(\c1ccccc1)c1ccc(OCCN(C)C)cc1)c1ccccc1`, the melting point was 97 °C. For `C=C[C@H]1C[N@@]2CC[C@H]1C[C@H]2C12Nc3ccccc3C1(O)CCO2` (stereo partly specified), the melting point was 186 °C. With `CCOC(=O)N(c1ccccc1)c1ccccc1` the boiling point was 360 °C and the melting point was 72 °C. With `Cc1ncc([N+](=O)[O-])n1C` the melting point was 138 °C. Work on `CNC(=S)NC` yielded a melting point of 62 °C. For `O=S(=O)(Cl)CCCl`, the boiling point was 202 °C. Molecule `CCC(=O)c1ccc(Br)cc1` has a melting point of 48 °C. `CCSc1nnc(C(C)(C)C)c(=O)n1N` gave a log10 vapour pressure (mmHg) of -5.12 and a melting point of 95 °C. For `Nc1cccc2c(N)cccc12`, the melting point was 190 °C and the ready biodegradability was “not readily biodegradable”. With `CCCCCCCCCCCCCCCO` the log10 vapour pressure (mmHg) was -4.41, the melting point was 45.5 °C and the ready biodegradability was “readily biodegradable”. `C=C[Si](C)(C)Cl` gave a boiling point of 83.5 °C. For `O=C(O)CCCCCl`, the boiling point was 230 °C and the melting point was 18 °C. `CNc1ccc(Cl)cc1` gave a boiling point of 240 °C. `CCOCC(O)CO` (stereo unspecified) gave a boiling point of 222 °C. `CCC(C(=O)O)c1ccc(N2Cc3ccccc3C2=O)cc1` (stereo unspecified) gave a melting point of 183 °C. With `CC1=CC(=O)CC(C)(C)[C@@]1(O)/C=C/C(C)=C\C(=O)O` the melting point was 160 °C. In the case of `Cc1ccsc1`, the boiling point is reported as 116 °C, the log10 vapour pressure (mmHg) is reported as 1.35 and the melting point is reported as -69 °C. For the same molecule, the ready biodegradability was “not readily biodegradable”.
